# Source: patent publication US20090137658A1, “BENZENESULFONIC ACID SALT COMPOUNDS” (Tanabe Seiyaku Co.,Ltd., priority 2003, published 2009)
# “Also recorded” adds a separate entry of the source.
# Experiments:
# Assay type in all cases: physicochemical
# [1] = Moisture sorption testing of besylate anhydrate salt (integrated vacuum microbalance); conditions: in the presence of water vapour, such as at elevated relative humidity
# Method: Moisture sorption was measured with an integrated vacuum microbalance system. Approximately 11 mg of 4-({2-[(2S)-2-cyanopyrrolidinyl]-2-oxoethyl}amino)-N,N-dimethylcyclohexanecarboxamide besylate anhydrate salt was weighed into a sample pan of an integrated vacuum microbalance system (MB300G, VTI Corporation). The sample was dried at 60° C. under vacuum until the rate of weight loss was less than 0.015% in 2 minutes. After drying the sample was equilibrated at 25° C. and the relative humidity increased stepwise (adsorption) to 15, 25, 35, 45, 55, 65, 75, 85 and 95% Each relative humidity step was held until the sample equilibrated at that condition. Equilibrium was defined as a weight change of less than 0.015% in 2 minutes. The relative humidity was then decreased step wise (desorption) to 90, 80, 70, 60, 50, 40, 30 and 20% Each step was held until equilibrium was reached. The equilibrium condition was the same as in the sorption phase. The % w/w increase or decrease in moisture content of the sample is reported for each equilibrated RH condition.
# [2] = Hygroscopicity / deliquescence of crystalline salts at elevated relative humidity
# Description: This is exemplified by the hygroscopicity of the crystalline hydrochloride (HCl) salt of trans-4-({2-[(2S)-2-cyanopyrrolidinyl]-2-oxoethyl}amino)-N,N-dimethylcyclohexanecarboxamide. […] That is, the benzenesulfonic acid salts of the present invention sorb much lower amounts of water when exposed to a broad range of humidities and can be prepared in a physically stable crystal form, thus enhancing their suitability as medicaments.
# [3] = Moisture sorption testing of besylate monohydrate salt (integrated gas flow microbalance)
# Method: Moisture sorption was measured with an integrated gas flow microbalance system. Approximately 20 mg of 4-({2-[(2S)-2-cyanopyrrolidinyl]-2-oxoethyl}amino)-N,N-dimethylcyclohexanecarboxamide besylate monohydrate salt was weighed into a sample pan of an integrated gas flow microbalance system (SGA100, VTI Corporation). The sample was dried at 60° C. under a dry nitrogen stream until the rate of weight loss was less than 0.015% in 5 minutes. After drying the sample was equilibrated at 25° C. and the relative humidity increased stepwise (adsorption) to 5, 15, 25, 35, 45, 55, 65, 75, 85 and 95% Each relative humidity step was held until the sample equilibrated at that condition. Equilibrium was defined as a weight change of less than 0.015% in 5 minutes. The relative humidity was then decreased step wise (desorption) to 90, 80, 70, 60, 50, 40, and 20% Each step was held until equilibrium was reached. The equilibrium condition was the same as in the sorption phase. The % w/w increase or decrease in moisture content of the sample is reported for each equilibrated RH condition.
# [4] = Infrared (IR) studies of hydration/dehydration of besylate monohydrate
# Method: The partially dehydrated form of the monohydrate Form 1 of Formula I is stable for at least 24 hours at room temperature and partial hydration to the monohydrate of Formula I can be recovered at higher relative humidity (RH).
# Samples of trans-4-({2-[(2S)-2-cyanopyrrolidinyl]-2-oxoethyl}amino)-N,N-dimethylcyclohexane-carboxamide besylate monohydrate either as a pure solid or diluted in KBr powder were placed inside a FTIR spectrometer purged under dry N2 at room temperature (RT). […] Upon re-exposure of the partially dehydrated samples to the atmosphere for <1 min., the intensities of these IR bands are fully recovered. The FTIR spectrum of this experiment is in FIG. 4.
# [5] = purged under dry N2 at room temperature
smiles,measurement,setting,value
"CN(C)C(=O)C1CCC(NCC(=O)N2CCC[C@H]2C#N)CC1.O=S(=O)(O)c1ccccc1 (stereo partly drawn) [Form 2, trans-4-({2-[(2S)-2-cyanopyrrolidinyl]-2-oxoethyl}amino)-N,N-dimethylcyclohexanecarboxamide besylate anhydrate]",conversion of anhydrate form,[1],converts to the hydrate
"CN(C)C(=O)[C@H]1CC[C@H](NCC(=O)N2CCC[C@H]2C#N)CC1.Cl (relative stereo) [HCl salt, trans-4-({2-[(2S)-2-cyanopyrrolidinyl]-2-oxoethyl}-amino)-N,N-dimethylcyclohexanecarboxamide hydrochloride]",time to deliquesce,"[2]; 25° C., relative humidities greater than 75%",approximately 20 hours
same,time to deliquesce,"[2]; 40° C., relative humidities of greater than 75%",approximately 24 hours
"CN(C)C(=O)[C@H]1CC[C@H](NCC(=O)N2CCC[C@H]2C#N)CC1 [Form 1, trans-4-({2-[(2S)-2-cyanopyrrolidinyl]-2-oxoethyl}amino)-N,N-dimethylcyclohexanecarboxamide benzenesulfonate monohydrate]",water absorbed,[3]; relative humidity between 0% and 95% at 25° C.,less than 10 % w/w
same,additional water sorbed by the monohydrate,"[3]; up to 95% relative humidity, on top of monohydrate water content",1-2 % w/w
same,desorption of adsorbed water,[3]; when the relative humidity is decreased,readily desorbs
same,re-exposure time to the atmosphere after which IR bands are fully recovered,[4]; partially dehydrated samples re-exposed to the atmosphere,< 1 min
same,time to reach dehydration equilibrium (IR bands of H2O),[4]; [5],~30 min
same,time within which IR bands assigned to H2O decreased very rapidly,[4]; [5],≤ 10 min
same,stability of the partially dehydrated form,[4]; room temperature,at least 24 hours
same,dehydration (loss of water),"[4]; room temperature, purged with or exposed to dried air or dry nitrogen (low relative humidity), benzenesulfonate monohydrate",loses water readily; also recorded: partial dehydration of the hydrate is facile
same,re-hydration of the dehydrated form,"[4]; upon exposure to atmospheric humidity / higher relative humidities, benzenesulfonate monohydrate",re-hydration occurs rapidly; also recorded: re-hydration to the monohydrate occurs very rapidly
